Measured values: US9421209B2, “Kinase modulators” (Rhizen Pharmaceuticals SA, priority 2009, dated 2016)

How the values were obtained:
P110 δ/Pi3K δ = P110 δ/Pi3K δ (Homo sapiens, UniProt O00329); assay: Fluorescent (HTRF) determination of PI3K enzyme activity, δ isoform; assay type: biochemical; set-up: inhibition: dose or concentration left out as unconfirmed; conditions: for IC50: read-out: P110 δ/Pi3K δ IC 50 nM
From the text: Assay 1: Fluorescent determination of PI3Kinase Kinase enzyme activity
Phosphoinositide 3 kinases (PI3K) belong to a class of lipid kinases that play a critical role in the regulation of several key cellular processes. The PI3K are capable of phosphorylating the 3-hydroxy position of phosphoinositols thereby generating second messengers involved in downstream signalling events. The homogenous time resolved fluorescence (HTRF) assay allows detection of 3,4,5-triphosphate (PIP3) formed as a result of phosphorylation of phosphotidylinositol 4,5-biphosphate (PIP2) by PI3K isoforms such as α, β, γ or δ.
PI3K isoform activity for α, β, γ or δ was determined using a PI3K human HTRF™ Assay Kit (Millipore, Billerica, Mass.) with modifications. All incubations were carried out at room temperature. […] After the initial incubation, 5 μl/well of 400 μM ATP was added and incubated for an additional 30 minutes. Reaction was terminated by adding 5 μl/well stop solution (Millipore, Billerica, Mass.). Five microliters of detection mix (Millipore, Billerica, Mass.) were then added to each well and was incubated for 6-18 h in the dark. […] Data were analyzed using Graphpad Prism (Graphpad software; San Diego Calif.) for IC50 determination. Percent inhibition was calculated based on the values for the blank and enzyme controls.

Sequence of P110 δ/Pi3K δ (O00329 whole entry, canonical isoform): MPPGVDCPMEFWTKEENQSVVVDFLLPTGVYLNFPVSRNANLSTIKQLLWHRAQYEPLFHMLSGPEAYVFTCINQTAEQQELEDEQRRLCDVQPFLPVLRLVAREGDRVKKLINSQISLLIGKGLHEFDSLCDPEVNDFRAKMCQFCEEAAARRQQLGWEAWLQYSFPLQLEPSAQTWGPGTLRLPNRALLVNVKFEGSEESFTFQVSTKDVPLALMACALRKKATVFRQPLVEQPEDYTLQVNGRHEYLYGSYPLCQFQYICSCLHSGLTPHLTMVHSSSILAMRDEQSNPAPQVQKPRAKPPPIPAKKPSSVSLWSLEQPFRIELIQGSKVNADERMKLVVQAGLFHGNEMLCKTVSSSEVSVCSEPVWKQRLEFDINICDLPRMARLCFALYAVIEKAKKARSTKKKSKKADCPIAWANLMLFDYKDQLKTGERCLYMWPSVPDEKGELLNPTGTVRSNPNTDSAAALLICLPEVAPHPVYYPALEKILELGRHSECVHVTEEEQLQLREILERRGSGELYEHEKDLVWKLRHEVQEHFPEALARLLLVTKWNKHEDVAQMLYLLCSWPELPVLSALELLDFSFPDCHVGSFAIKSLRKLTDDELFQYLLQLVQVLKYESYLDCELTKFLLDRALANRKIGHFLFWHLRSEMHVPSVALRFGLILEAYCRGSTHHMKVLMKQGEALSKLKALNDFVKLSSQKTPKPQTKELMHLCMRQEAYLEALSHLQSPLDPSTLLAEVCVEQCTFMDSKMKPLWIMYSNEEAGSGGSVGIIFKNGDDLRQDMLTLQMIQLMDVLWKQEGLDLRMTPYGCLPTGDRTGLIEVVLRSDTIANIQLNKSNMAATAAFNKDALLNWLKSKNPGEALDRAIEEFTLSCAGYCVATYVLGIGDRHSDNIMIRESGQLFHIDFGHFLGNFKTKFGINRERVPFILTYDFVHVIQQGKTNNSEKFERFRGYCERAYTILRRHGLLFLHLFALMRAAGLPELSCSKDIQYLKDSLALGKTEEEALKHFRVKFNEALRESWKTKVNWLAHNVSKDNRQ
Sequence of P110 δ/Pi3K δ (P27986 whole entry partner, canonical isoform): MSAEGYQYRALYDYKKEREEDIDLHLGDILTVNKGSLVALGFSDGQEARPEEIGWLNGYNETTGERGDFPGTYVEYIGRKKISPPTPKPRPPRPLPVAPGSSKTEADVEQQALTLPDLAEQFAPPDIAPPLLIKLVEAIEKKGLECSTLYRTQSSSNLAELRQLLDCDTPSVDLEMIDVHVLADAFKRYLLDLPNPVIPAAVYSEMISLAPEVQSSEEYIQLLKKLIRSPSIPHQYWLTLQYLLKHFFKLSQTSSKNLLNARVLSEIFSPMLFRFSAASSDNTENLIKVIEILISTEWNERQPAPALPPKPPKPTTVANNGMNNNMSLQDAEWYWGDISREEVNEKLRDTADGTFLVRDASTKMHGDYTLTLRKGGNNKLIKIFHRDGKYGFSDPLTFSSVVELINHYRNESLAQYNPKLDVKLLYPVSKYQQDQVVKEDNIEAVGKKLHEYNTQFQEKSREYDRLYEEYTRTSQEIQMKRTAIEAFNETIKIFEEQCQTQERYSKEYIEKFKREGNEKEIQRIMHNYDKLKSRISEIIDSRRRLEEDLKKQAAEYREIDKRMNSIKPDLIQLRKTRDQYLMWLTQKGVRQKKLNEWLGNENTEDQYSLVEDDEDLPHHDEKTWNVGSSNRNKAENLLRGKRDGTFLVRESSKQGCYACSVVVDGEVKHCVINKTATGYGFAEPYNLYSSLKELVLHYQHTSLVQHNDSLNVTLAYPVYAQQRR

Row | Compound | melting point | inhibition at 1 µM (P110 δ/Pi3K δ) | IC50 (P110 δ/Pi3K δ) | inhibition (P110 δ/Pi3K δ)
1 | Nc1ncnc2c1c(C#CCO)nn2Cc1oc2ccccc2c(=O)c1-c1ccccc1 [Example 59, 2-((4-amino-3-(3-hydroxyprop-1-ynyl)-1H-pyrazolo[3,4-d]pyrimidin-1-yl)methyl)-3-phenyl-4H-chromen-4-one] | 171 to 173 °C | 50 to 100% | 250 to 500 nM | –
2 | Nc1ncnc2c1c(-c1cn[nH]c1)nn2Cc1oc2ccccc2c(=O)c1-c1ccccc1 [Example 60, 2-((4-amino-3-(1H-pyrazol-4-yl)-1H-pyrazolo[3,4-d]pyrimidin-1-yl)methyl)-3-phenyl-4H-chromen-4-one] | 235 to 237 °C | 50 to 100% | < 250 nM | –
3 | Nc1ncnc2c1c(-c1cccc(CO)c1)nn2Cc1oc2ccccc2c(=O)c1-c1ccccc1 [Example 61, 2-((4-amino-3-(3-(hydroxymethyl)phenyl)-1H-pyrazolo[3,4-d]pyrimidin-1-yl)methyl)-3-phenyl-4H-chromen-4-one] | 219 to 223 °C | < 50% | – | –
4 | Nc1ncnc2c1c(-c1cccc3[nH]ncc13)nn2Cc1oc2ccccc2c(=O)c1-c1ccccc1 [Example 62, 2-((4-amino-3-(1H-indazol-4-yl)-1H-pyrazolo[3,4-d]pyrimidin-1-yl)methyl)-3-phenyl-4H-chromen-4-one] | 248 to 252 °C | < 50% | – | –
5 | Nc1ncnc2c1c(-c1cccc(F)c1)nn2Cc1oc2ccccc2c(=O)c1-c1ccccc1 [Example 63, 2-((4-amino-3-(3-fluorophenyl)-1H-pyrazolo[3,4-d]pyrimidin-1-yl)methyl)-3-phenyl-4H-chromen-4-one] | 244 to 247 °C | < 50% | – | –
6 | Nc1ncnc2c1c(CCCO)nn2Cc1oc2ccccc2c(=O)c1-c1ccccc1 [Example 64, 2-((4-amino-3-(3-hydroxypropyl)-1H-pyrazolo[3,4-d]pyrimidin-1-yl)methyl)-3-phenyl-4H-chromen-4-one] | 182 to 184 °C | < 50% | – | –
7 | CC(=O)Nc1cccc(-c2nn(Cc3oc4ccccc4c(=O)c3-c3ccccc3)c3ncnc(N)c23)c1 [Example 65, N-(3-(4-amino-1-((4-oxo-3-phenyl-4H-chromen-2-yl)methyl)-1H-pyrazolo[3,4-d]pyrimidin-3-yl)phenyl)acetamide] | 122 to 123 °C | < 50% | – | –
8 | Nc1ncnc2c1c(-c1cc(O)cc(F)c1)nn2Cc1oc2ccccc2c(=O)c1-c1ccccc1 [Example 66a, 2-((4-amino-3-(3-fluoro-5-hydroxyphenyl)-1H-pyrazolo[3,4-d]pyrimidin-1-yl)methyl)-3-phenyl-4H-chromen-4-one] | 260 to 262 °C | 50 to 100% | < 250 nM | –
9 | COc1cc(F)cc(-c2nn(Cc3oc4ccccc4c(=O)c3-c3cccc(F)c3)c3ncnc(N)c23)c1 [Example 67, 2-((4-amino-3-(3-fluoro-5-methoxyphenyl)-1H-pyrazolo[3,4-d]pyrimidin-1-yl)methyl)-3-(3-fluorophenyl)-4H-chromen-4-one] | 115 to 117 °C | < 50% | – | –
10 | CC(c1oc2ccccc2c(=O)c1-c1ccccc1)n1nc(-c2cn[nH]c2)c2c(N)ncnc21 (stereo not shown) [Example 69, 2-(1-(4-amino-3-(1H-pyrazol-4-yl)-1H-pyrazolo[3,4-d]pyrimidin-1-yl)ethyl)-3-phenyl-4H-chromen-4-one] | 214 to 217 °C | 50 to 100% | – | –
11 | CC(c1oc2ccccc2c(=O)c1-c1ccccc1)n1nc(-c2ccc3cn[nH]c3c2)c2c(N)ncnc21 (stereo not shown) [Example 70, 2-(1-(4-amino-3-(1H-indazol-6-yl)-1H-pyrazolo[3,4-d]pyrimidin-1-yl)ethyl)-3-phenyl-4H-chromen-4-one] | 176 to 178 °C | 50 to 100% | – | –
12 | CC(c1oc2ccccc2c(=O)c1-c1ccccc1)n1nc(C#CC(C)(C)O)c2c(N)ncnc21 (stereo not shown) [Example 71, 2-(1-(4-amino-3-(3-hydroxy-3-methylbut-1-ynyl)-1H-pyrazolo[3,4-d]pyrimidin-1-yl)ethyl)-3-phenyl-4H-chromen-4-one] | 109 to 113 °C | < 50% | – | –
13 | CC(c1oc2ccccc2c(=O)c1-c1cccc(F)c1)n1nc(-c2cn[nH]c2)c2c(N)ncnc21 (stereo not shown) [Example 72, 2-(1-(4-amino-3-(1H-pyrazol-4-yl)-1H-pyrazolo[3,4-d]pyrimidin-1-yl)ethyl)-3-(3-fluorophenyl)-4H-chromen-4-one] | 223 to 226 °C | 50 to 100% | < 250 nM | –
14 | C[C@H](Nc1ncnc2[nH]cnc12)c1oc2ccccc2c(=O)c1-c1ccccc1 [Example 73, (S)-2-(1-(9H-purin-6-ylamino)ethyl)-3-phenyl-4H-chromen-4-one] | 135 to 138 °C | 50 to 100% | – | –
15 | Nc1ncnc2c1c(-c1ccc3cn[nH]c3c1)nn2Cc1oc2ccccc2c(=O)c1-c1ccccc1 [Example 75, 2-((4-amino-3-(1H-indazol-6-yl)-1H-pyrazolo[3,4-d]pyrimidin-1-yl)methyl)-3-phenyl-4H-chromen-4-one] | 140 to 143 °C | 50 to 100% | – | –
16 | CC(c1oc2ccccc2c(=O)c1-c1cccc(F)c1)n1nc(-c2cc(O)cc(F)c2)c2c(N)ncnc21 (stereo not shown) [Example 76a, 2-(1-(4-amino-3-(3-fluoro-5-hydroxyphenyl)-1H-pyrazolo[3,4-d]pyrimidin-1-yl)ethyl)-3-(3-fluorophenyl)-4H-chromen-4-one] | 271 to 273 °C | 50 to 100% | – | –
17 | CC(c1oc2ccccc2c(=O)c1-c1cccc(F)c1)n1nc(-c2cccc3[nH]ncc23)c2c(N)ncnc21 (stereo not shown) [Example 77, 2-(1-(4-amino-3-(1H-indazol-4-yl)-1H-pyrazolo[3,4-d]pyrimidin-1-yl)ethyl)-3-(3-fluorophenyl)-4H-chromen-4-one] | 231 to 233 °C | 50 to 100% | – | –
18 | Cc1n[nH]c(C)c1-c1nn(C(C)c2oc3ccccc3c(=O)c2-c2cccc(F)c2)c2ncnc(N)c12 (stereo not shown) [Example 78, 2-(1-(4-amino-3-(3,5-dimethyl-1H-pyrazol-4-yl)-1H-pyrazolo[3,4-d]pyrimidin-1-yl)ethyl)-3-(3-fluorophenyl)-4H-chromen-4-one] | 240 to 243 °C | – | – | < 50%
19 | CC(c1oc2ccccc2c(=O)c1-c1cccc(F)c1)n1nc(-c2ccc3cn[nH]c3c2)c2c(N)ncnc21 (stereo not shown) [Example 80, 2-(1-(4-amino-3-(1H-indazol-6-yl)-1H-pyrazolo[3,4-d]pyrimidin-1-yl)ethyl)-3-(3-fluorophenyl)-4H-chromen-4-one] | 206 to 208 °C | – | – | < 50%
20 | CC(c1oc2ccccc2c(=O)c1-c1cccc(F)c1)n1nc(-c2ccccc2CO)c2c(N)ncnc21 (stereo not shown) [Example 81, 2-(1-(4-amino-3-(2-(hydroxymethyl)phenyl)-1H-pyrazolo[3,4-d]pyrimidin-1-yl)ethyl)-3-(3-fluorophenyl)-4H-chromen-4-one] | 185 to 189 °C | – | – | < 50%
21 | CC(c1oc2ccccc2c(=O)c1-c1cccc(F)c1)n1nc(C#CCO)c2c(N)ncnc21 (stereo not shown) [Example 83, 2-(1-(4-amino-3-(3-hydroxyprop-1-ynyl)-1H-pyrazolo[3,4-d]pyrimidin-1-yl)ethyl)-3-(3-fluorophenyl)-4H-chromen-4-one] | 171 to 173 °C | – | – | 50 to 100%
22 | CC(c1oc2ccccc2c(=O)c1-c1cccc(F)c1)n1nc(-c2cc(O)cc(Cl)c2)c2c(N)ncnc21 (stereo not shown) [Example 86a, 2-(1-(4-amino-3-(3-chloro-5-hydroxyphenyl)-1H-pyrazolo[3,4-d]pyrimidin-1-yl)ethyl)-3-(3-fluorophenyl)-4H-chromen-4-one] | 122 to 124 °C | – | – | 50 to 100%
23 | CC(c1oc2ccccc2c(=O)c1-c1cccc(F)c1)n1nc(-c2cccc(OC(F)(F)F)c2)c2c(N)ncnc21 (stereo not shown) [Example 87, 2-(1-(4-amino-3-(3-(trifluoromethoxy)phenyl)-1H-pyrazolo[3,4-d]pyrimidin-1-yl)ethyl)-3-(3-fluorophenyl)-4H-chromen-4-one] | 155 to 157 °C | – | – | 50 to 100%
24 | CC(c1oc2ccccc2c(=O)c1-c1cccc(F)c1)n1nc(-c2ccc(O)cc2)c2c(N)ncnc21 (stereo not shown) [Example 88a, 2-(1-(4-amino-3-(4-hydroxyphenyl)-1H-pyrazolo[3,4-d]pyrimidin-1-yl)ethyl)-3-(3-fluorophenyl)-4H-chromen-4-one] | 244 to 247 °C | – | – | 50 to 100%
25 | Nc1ncnc2c1ncn2Cc1oc2ccccc2c(=O)c1-c1cccc(F)c1 [Example 89, 2-((6-amino-9H-purin-9-yl)methyl)-3-(3-fluorophenyl)-4H-chromen-4-one] | 224 to 227 °C | – | – | < 50%
26 | Nc1cccc(-c2nn(Cc3oc4ccccc4c(=O)c3-c3ccccc3)c3ncnc(N)c23)c1 [Example 91, 2-((4-amino-3-(3-aminophenyl)-1H-pyrazolo[3,4-d]pyrimidin-1-yl)methyl)-3-phenyl-4H-chromen-4-one] | 157 to 159 °C | – | – | < 50%
27 | CC(c1oc2ccccc2c(=O)c1-c1cccc(F)c1)n1nc(-c2cnc(N)nc2)c2c(N)ncnc21 (stereo not shown) [Example 93, 2-(1-(4-amino-3-(2-aminopyrimidin-5-yl)-1H-pyrazolo[3,4-d]pyrimidin-1-yl)ethyl)-3-(3-fluorophenyl)-4H-chromen-4-one] | 264 to 268 °C | – | – | 50 to 100%
